Reference: US10449146B2, “Methods of treating parkinson's disease by administration of apomorphine to an oral mucosa” (Sunovion Pharmaceuticals Inc., priority 2015, dated 2019)
Where two headings read alike, the source gives them in different places.

How the values were obtained:
[1] = Plasma apomorphine concentration in Parkinson's patients, minimum effective concentration; type: in vivo, human
Experimental: A range of doses was used. Over half of the patients needed only the lower two doses (Films J and K), and 80% used Film I, J, or K (FIG. 8; “apomorphine dose” in this Figure indicates the weight of apomorphine hydrochloride in the administered pharmaceutical unit dosage form). […] Eight patients had pharmacokinetic analyses; six of these eight patients have achieved “on” state. Mean plasma apomorphine concentration upon turning on was 2.64 ng/mL for the six patients. […] Responders had large, clinically meaningful UPDRS Part III changes (motor improvement) at all time-points while the non-responders had little motor improvement but not enough to convert from OFF to ON (FIG. 9B).

[2] = intravenous infusion, subjects having Parkinson's disease; cited from earlier work

Mean plasma apomorphine concentration upon turning on ([1]; six patients who achieved 'on' state, film to oral mucosa): 2.64 ng/mL
average plasma apomorphine concentration ([1]; two non-responders, all doses, each time point): < 2.64 ng/mL
Structure (SMILES): CN1CCc2cccc3c2[C@H]1Cc1ccc(O)c(O)c1-3 [apomorphine]
minimum effective concentration ([1]; administered to oral mucosa): about 2.64 ng/mL
minimum effective concentration [2]: 4.7 ng/mL
